In article PMC7725785, “TRIB3 promotes MYC-associated lymphoma development through suppression of UBE3B-mediated MYC degradation” (Nature Communications, 2020):

Legend:
Raji cells = experiment: Cell viability (CCK-8) of Raji cells with PCM4 and DOX; assay type: cell-based, human; settings: result in words
DLBCL^T156 PDX = experiment: PDX model tumor growth and weight, DLBCL T156; assay type: in vivo, human; settings: result in words
Method: (§1) Four 5-week-old male NSG mice were implanted subcutaneously with 200 μl of a 1:1 mixture of Matrigel® Basement Membrane Matrix High Concentration (Corning, 354230) and minced fresh tumor fragments resected from lymphoma patients. Approximately 3–4 weeks following implantation, the first-generation mice (G1) were killed, and tumor masses were isolated. The tumor cells were tested for human CD19 (BCL) or CD3 expression (T cell lymphoma), and the remaining tumor mass was cut into 3-mm^3 sections and passaged into 4–5 NSG mice as the second generation (G2). After stable passage of the third generation (G3), the tumor mass of the fourth generation (G4) was equally cut into 3-mm^3 pieces and then passaged subcutaneously into 30–50 NSG mice (100 μl of a 1:2 mixture of Matrigel and tumor tissue) for in vivo treatment (6–8 mice per group, dependent on the experimental drug treatment). During and after treatment with the vehicle control or the indicated agent, tumor burden was evaluated by measuring the tumor volume to determine the therapeutic efficacy in the PDX models. […]
(§2) To evaluate the survival rate, these mice were monitored for 8 months (Myc^Eμ mice). […] During the indicated treatments, tumor burden was evaluated by measuring the tumor volume to determine the therapeutic efficacy in the PDX models.

[1] = test system: TRIB3-MYC interaction and MYC expression; experiment: TRIB3/MYC Co-IP and MYC immunoblot in spleens and LNs of treated Myc^Eμ mice; assay type: in vivo, mouse; settings: Myc^Eμ mice; result in words
Method: (§3) To evaluate the survival rate of secondary recipients, these mice were monitored for 70 days. For the evaluation of IHC staining and protein expression, three mice of each group were killed at the end of treatment, and the thymuses, spleens and LNs were collected for pathology detection, Co-IP, and western blot assays.
Co-IP experiments were performed as described previously. Briefly, cells were collected and lysed for 30 min on ice. Soluble lysates were incubated with the indicated antibodies at 4 °C overnight, followed by incubation with Protein A/G Plus-Agarose (Santa Cruz Biotechnology, TX, USA) at 4 °C for 2 h. Soluble lysates were incubated with the indicated Anti-Myc magnetic beads (Bimake.com, B26302), Anti-Flag Affinity Gel (Bimake.com, B23102) or Anti-HA Affinity Gel (Bimake.com, B23302) at 4 °C overnight. Immunocomplexes were separated from the beads and then boiled for 10 min. The precipitated proteins were subjected to SDS-PAGE and blotted with specific antibodies. For immunoblotting assays, proteins were extracted from cells, spleens, or lymphoma tissues using RIPA buffer (Cell Signaling Technology, MA, USA). A BCA Protein Assay Kit was used to determine protein concentrations. Protein extracts were separated by SDS-PAGE, transferred onto PVDF membranes, and subjected to immunoblot analysis. […]

[2] = test system: primary human DLBCL cells (T69); experiment: Serial colony formation (P1, P2) in methylcellulose, primary human DLBCL cells (T69); assay type: cell-based; settings: also Raji and Jurkat (Fig. 6o, Supplementary Fig. 7r, s), result in words
Source text: Mouse and human lymphoma cells formed colonies upon serum culture (P1). Single colonies of lymphoma cells were dispersed in methylcellulose-based medium MethoCul^TM M3630 (StemCell, 03630) or MethoCult™SF H4536 (StemCell, 04536). A representative plate was then washed and cells were resuspended and replated. After an additional 14 days, colonies were counted (P2).

[3] = test system: TRIB3 with AKT, p62, COP1, and PML; experiment: Co-IP of TRIB3/AKT, TRIB3/p62, TRIB3/COP1, TRIB3/PML (off-target); assay type: cell-based; settings: result in words
Method: Co-IP experiments were performed as described previously. Briefly, cells were collected and lysed for 30 min on ice. Soluble lysates were incubated with the indicated antibodies at 4 °C overnight, followed by incubation with Protein A/G Plus-Agarose (Santa Cruz Biotechnology, TX, USA) at 4 °C for 2 h. Soluble lysates were incubated with the indicated Anti-Myc magnetic beads (Bimake.com, B26302), Anti-Flag Affinity Gel (Bimake.com, B23102) or Anti-HA Affinity Gel (Bimake.com, B23302) at 4 °C overnight. Immunocomplexes were separated from the beads and then boiled for 10 min. The precipitated proteins were subjected to SDS-PAGE and blotted with specific antibodies. For immunoblotting assays, proteins were extracted from cells, spleens, or lymphoma tissues using RIPA buffer (Cell Signaling Technology, MA, USA). A BCA Protein Assay Kit was used to determine protein concentrations. Protein extracts were separated by SDS-PAGE, transferred onto PVDF membranes, and subjected to immunoblot analysis. Western blot images were captured by a Tanon 5200 chemiluminescent imaging system (Tanon, Shanghai, […]). Human lymphoma and benign LN paraffin tissue microarrays were purchased from US Biomax (LM482a).

MYC and MAX = experiment: Duolink PLA of MYC and MAX colocalization in Raji cells; assay type: cell-based, human; settings: PCM4-treated Raji cells, result in words
Method: A total of 1 × 10^6 cells were seeded overnight in a six-well plate. The next day, cells were collected, fixed in 4% paraformaldehyde solution, permeabilized with 0.5% Triton-X100, blocked with Duolink® Blocking Solution, and probed with antibodies directed against MYC (R&D, NB600-302, 1:100), TRIB3 (Novus, H00057761-M03, 1:100), UBE3B (Invitrogen, PA5-59390, 1:100), and MAX (Cell Signaling Technology, #4739, 1:100). The cells were then treated with the Duolink In Situ Red Starter Mouse/Rabbit kit (Sigma Aldrich, DUO92101-1KT) according to the manufacturer’s instructions. Images were captured with an OLYMPUS confocal microscope.

DLBCL^T64 PDX = experiment: PDX model tumor growth and weight, DLBCL T64; assay type: in vivo, human; settings: result in words
Method: as §1, §2

[4] = test system: MYC transcriptional activity; experiment: E-box luciferase reporter assay of MYC transcriptional activity in Raji cells; assay type: cell-based, human; settings: 24 h after transfection, versus PCON, result in words
Method: Cells were seeded in 12-well plates and transfected with E-box-dependent luciferase reporters (Yeasen Inc.) using VigoFect (Vigorous Biotechnology Beijing, China). pTK-Renilla was used as an internal control. Luciferase activity was measured 20–24 h after transfection using the Dual-luciferase Reporter Assay System (Promega, USA).

DLBCL^T169 PDX = experiment: PDX model tumor growth and weight, DLBCL T169; assay type: in vivo, human; settings: result in words
Method: as §1, §2

[5] = test system: murine Myc^Eμ lymphoma cells in NSG mice; experiment: Limiting dilution transplantation of BCL cells into NSG mice (survival of secondary recipients); assay type: in vivo, mouse; settings: NSG mice injected i.p. with lymphoma cells from PCM4 (2 mg/kg) group versus PCON group, 70 days; result in words
Source text: as §3

## HLYVSPWGGKRREQLKHKLEQLR [PCM4, fused peptide generated by linking CM4 to a cell-penetrating peptide]
Raji cells
  effect on Raji cell proliferation in combination with doxorubicin (DOX): synergistically inhibited Raji cell proliferation
DLBCL^T156 PDX; PDX T156 (high TRIB3 and MYC expression), PCM4 5 mg/kg and DOX 2 mg/kg
  growth and weights of tumors, combination of PCM4 and DOX: further decreased the growth and weights of tumors
DLBCL^T156 PDX; PDX T156, NSG mice, PCM4 5 mg/kg i.v. three times a week
  tumor growth of PDX: inhibited the tumor growth
[1]
  TRIB3-MYC interaction and MYC expression in the LNs and spleens: decrease in the TRIB3-MYC interaction and MYC expression
[2]
  intrinsic clonogenicity of human lymphoma cells: reduced the intrinsic clonogenicity
[3]
  off-target: interactions of TRIB3 with AKT, p62, COP1, and PML: did not disturb the interactions of TRIB3 with these proteins
MYC and MAX
  foci of MAX-MYC colocalization: reduced foci of MAX-MYC colocalization
DLBCL^T64 PDX; PDX T64 (high TRIB3 and MYC expression), PCM4 5 mg/kg and DOX 2 mg/kg
  growth and weights of tumors, combination of PCM4 and DOX: further decreased the growth and weights of tumors
DLBCL^T64 PDX; PDX T64, NSG mice, PCM4 5 mg/kg i.v. three times a week
  tumor growth of PDX: inhibited the tumor growth
[4]
  MYC transcriptional activity: reduced MYC transcriptional activity
DLBCL^T169 PDX; PDX T169 (high TRIB3 and MYC expression), PCM4 5 mg/kg and DOX 2 mg/kg
  growth and weights of tumors, combination of PCM4 and DOX: further decreased the growth and weights of tumors
DLBCL^T169 PDX; PDX T169, NSG mice, PCM4 5 mg/kg i.v. three times a week
  tumor growth of PDX: inhibited the tumor growth
[5]
  survival rate of secondary recipients: better survival rate
